Reference: patent US9976183B2, “Biomarkers for cancers responsive to modulators of HEC1 activity” (TAIVEX THERAPEUTICS CORPORATION, priority 2011, dated 2018)
Values belong to the compound of their own block, whether it stands above or below them.

Experiments:
Type in all cases: cell-based
Huh7 [1] = test: Drug sensitivity, MTS cell viability assay (GI50)
Procedure: (§1) Drug sensitivity: Cell lines were screened for drug sensitivity by treatment with specified drugs 24 hours after seeding in appropriate seeding numbers into 96 well plates containing low glucose DME with 10% FBS. The drug was added to the plate in triplicate wells, and the cells are incubated in drug treated medium for 96 hours before cell viability was determined by MTS assay using CellTiter 96® Aqueous non-radioactive cell proliferation assay system (Promega, Madison, Wis. 53711 USA). The MTS assay was performed according to the manufacturer's instructions. Optical density was measured using a Bio-Tek 340 spectrophotometer (Bio-Tek, Winooski, Vt. 05404) and optical readings were then processed in Excel (Microsoft, Redmond, Wash. 98052-7329) and GraphPad Prism 5 linear regression software (GraphPad Software, La Jolla, Calif. 92037 USA) to determine concentration-response curves for calculating relative GI50s. […] The % growth inhibition of the test drug on cells were calculated as: [1−(Test Value)/(Control Value)]×100; these values were used to plot concentration-response curves, and then analyzed with linear regression software.

K562R = test: Drug sensitivity, MTS assay, drug resistant cell line; conditions: Homo sapiens, K-562R, Gleevec resistant myelogenous leukemia
Procedure: as §1

MEX-SA/Dx5 = test: as above; conditions: MEX-SA/Dx5, multi-drug resistant uterine sarcoma
Procedure: as §1

NCI/ADR-RES = test: as above; conditions: Homo sapiens, multi-drug resistant uterine sarcoma
Procedure: as §1

HeLa [2] = test: Synergy of Hec1 inhibitor with cytotoxic drug (combination index, MTS)
Procedure: (§2) Synergy: GI50s for selected drugs were determined and used to calculate a concentration ratio for use synergy assays with Hec1 inhibitors. Cells were treated with drugs 24 hours after being seeded in appropriate seeding numbers into 96 well plates containing low glucose DME with 10% FBS. […] Cell viability was determined by MTS assay using a CellTiter 96® Aqueous non-radioactive cell proliferation assay system (Promega, Madison, Wis. 53711 USA) according to the manufacturer's instructions. Optical density was determined using a Bio-Tek 340 spectrophotometer (Bio-Tek, Winooski, Vt. 05404) and were then processed using Excel (Microsoft, Redmond, Wash. 98052-7329) and GraphPad Prism 5 linear regression software (GraphPad Software, La Jolla, Calif. 92037 USA) to determine concentration-response curves for calculating relative GI50s. Synergy was determined by calculating a combination index value using the formula CI (combination index)=(CA,X/ICx,A)+(CB,X/ICx,B), where CA,X and CB,X are the concentrations of drug A and drug B used in combination to achieve x % drug effect. ICx,A and ICx,B are the concentrations for single agents to achieve the same effect.
(§3) Hec1 inhibitor-responsive cancer cells used for screening were treated with a mixture of Hec1 inhibitor and select anti-cancer drug at appropriate concentration ratios and evaluated for cell viability.

K562 [3] = test: as above
Procedure: as §2, §3

MB-231 = test: as above
Procedure: as §2, §3

MB-468 = test: as above
Procedure: as §2, §3

Hep3B [4] = test: as above; design: key to Combination Index: CI = (CA,X/ICx,A)+(CB,X/ICx,B) at x% drug effect
Procedure: as §2, §3

Huh7 [5] = test: as above; design: key to Combination Index: CI = (CA,X/ICx,A)+(CB,X/ICx,B) at x% drug effect
Procedure: as §2, §3

HepG2 [6] = test: as above; design: key: CI = (CA,X/ICx,A)+(CB,X/ICx,B) at x% drug effect
Procedure: as §2, §3

PCL/PRF/5 = test: as above; design: key: CI = (CA,X/ICx,A)+(CB,X/ICx,B) at x% drug effect
Procedure: as §2, §3

HeLa [7] = test: Drug sensitivity, MTS cell viability assay (GI50); conditions: Homo sapiens, 96 hours
Procedure: as §1

Hep3B [8] = test: Drug sensitivity, MTS cell viability assay (GI50); conditions: Homo sapiens, 96 h
Procedure: as §1

HepG2 [9] = test: Drug sensitivity, MTS cell viability assay (GI50); conditions: Homo sapiens; for GI50: HepG2, 96 hours, MTS
Procedure: as §1

Hs578T = test: Drug sensitivity, MTS cell viability assay (GI50); conditions: Homo sapiens, Hs-578T, 96 hours
Procedure: as §1

K562 [10] = test: Drug sensitivity, MTS cell viability assay (GI50); conditions: Homo sapiens, K562, 96 h
Procedure: as §1

MDA-MB-453 = test: Drug sensitivity, MTS cell viability assay (GI50); conditions: Homo sapiens, MDA-MB-453, 96 hours
Procedure: as §1

MDA-MB-468 = test: Drug sensitivity, MTS cell viability assay (GI50)
Procedure: as §1

PLC/PRF/5 = test: Drug sensitivity, MTS cell viability assay (GI50); conditions: Homo sapiens, PLC/PRF/5, 96 hours
Procedure: as §1

T47D = test: Drug sensitivity, MTS cell viability assay (GI50); conditions: Homo sapiens, 96 hours
Procedure: as §1

ZR-75-1 = test: Drug sensitivity, MTS cell viability assay (GI50); conditions: Homo sapiens, ZR-75-1, 96 hours
Procedure: as §1

MDA-MB-231 = test: Drug sensitivity, MTS cell viability assay (GI50)
Procedure: as §1

[11] = in combination with doxorubicin
[12] = in combination with Taxol (paclitaxel)
[13] = Homo sapiens, Huh-7, 96 h, Huh7, 96 hours, MTS

- GI50 (Huh7 [1]; Huh7, 96 hours, MTS): 0.0272 µM
Structure (SMILES): O=C(Cc1ccc(-c2ccc(OCCN3CCOCC3)cc2)cn1)NCc1ccccc1 [KX01]

- GI50 (K562R): 0.026 µM
Structure (SMILES): COc1ccc(Oc2cc(C)c(-c3csc(NC(=O)c4ccnc(F)c4)n3)c(C)c2)cc1 [compound 101015, 2-fluoro-N-(4-(4-(4-methoxyphenoxy)-2,6-dimethylphenyl)thiazol-2-yl)isonicotinamide]
- GI50 (MEX-SA/Dx5): 0.0349 µM
- GI50 (NCI/ADR-RES): 0.0216 µM
- Combination Index (HeLa [2]; in combination with Taxol): 1.01
- Combination Index (HeLa [2]; [11]): 6.83
- Combination Index (HeLa [2]; in combination with topotecan): 1.58
- Combination Index (K562 [3]; [12]): 0.62
- Combination Index (K562 [3]; [11]): 0.62
- Combination Index (K562 [3]; in combination with topotecan): 1.12
- Combination Index (MB-231; [12]): 0.98
- Combination Index (MB-231; [11]): 1.75
- Combination Index (MB-231; in combination with topotecan): 0.85
- Combination Index (MB-468; in combination with Taxol): 1.16
- Combination Index (MB-468; [11]): 1.23
- Combination Index (MB-468; in combination with topotecan): 0.74
- Combination Index (Hep3B [4]; in combination with KX01): 2.32
- Combination Index (Hep3B [4]; in combination with Taxol): 2.38
- Combination Index (Hep3B [4]; [11]): 2.00
- Combination Index (Hep3B [4]; in combination with sorafenib): 1.91
- Combination Index (Hep3B [4]; in combination with topotecan): 1.05
- Combination Index (Huh7 [5]; in combination with KX01 (KXO1)): 1.08
- Combination Index (Huh7 [5]; [12]): 0.32
- Combination Index (Huh7 [5]; [11]): 0.54
- Combination Index (Huh7 [5]; in combination with sorafenib): 1.08
- Combination Index (Huh7 [5]; in combination with topotecan): 0.62
- Combination Index (HepG2 [6]; in combination with KX01): 1.68
- Combination Index (HepG2 [6]; [11]): 1.74
- Combination Index (HepG2 [6]; in combination with sorafenib): 0.89
- Combination Index (HepG2 [6]; in combination with topotecan): 1.92
- Combination Index (PCL/PRF/5; in combination with KX01): 1.31
- Combination Index (PCL/PRF/5; in combination with Taxol): 0.99
- Combination Index (PCL/PRF/5; [11]): 1.65
- Combination Index (PCL/PRF/5; in combination with sorafenib): 1.15
- Combination Index (PCL/PRF/5; in combination with topotecan): 1.17

- GI50 (HeLa [7]): 0.242 µM
- GI50 (Hep3B [8]): 0.248 µM
- GI50 (HepG2 [9]): 0.746 µM
- GI50 (Huh7 [1]; [13]): 0.183 µM
- GI50 (Huh7 [1]; Homo sapiens, Huh-7, Huh7, unit inferred): 0.183 µM
- GI50 (K562 [10]): 0.0362 µM
- GI50 (MDA-MB-453): 0.158 µM
- GI50 (MDA-MB-468; Homo sapiens, MDA-MB-468, 96 h): 0.0283 µM
- GI50 (MDA-MB-468; MDA-MB-468, 96 hours): 0.027 µM
- GI50 (T47D): 0.0119 µM
Structure (SMILES): COc1cccc2c1C(=O)c1c(O)c3c(c(O)c1C2=O)C[C@@](O)(C(=O)CO)C[C@@H]3O[C@H]1C[C@H](N)[C@H](O)[C@H](C)O1 [doxorubicin]
- GI50 (Hs578T): 0.711 µM
- GI50 (PLC/PRF/5): 0.0697 µM
- GI50 (ZR-75-1): 0.0929 µM

- GI50 (HeLa [7]): 0.0078 µM
- GI50 (Hep3B [8]): 0.00947 µM
- GI50 (HepG2 [9]; bound given in μM): > 50 µM
- IC50 (HepG2 [9]; HepG2, Taxol-resistant): > 10 µM
- GI50 (Huh7 [1]; Huh7, 96 hours, MTS): 0.0935 µM
- GI50 (MDA-MB-231; Homo sapiens, MDA-MB-231, 96 h): 0.003 µM
- GI50 (MDA-MB-231; MDA-MB-231, 96 hours): 0.00491 µM
- GI50 (MDA-MB-453): 0.00142 µM
- GI50 (MDA-MB-468; Homo sapiens, MDA-MB-468, 96 h): 0.00238 µM
- GI50 (T47D): 0.00319 µM
- GI50 (K562R): 0.0345 µM
Structure (SMILES): CC(=O)O[C@H]1C(=O)[C@@]2(C)[C@H]([C@H](OC(=O)c3ccccc3)[C@]3(O)C[C@H](OC(=O)[C@H](O)[C@@H](NC(=O)c4ccccc4)c4ccccc4)C(C)=C1C3(C)C)[C@]1(OC(C)=O)CO[C@@H]1C[C@@H]2O [paclitaxel]
- GI50 (Hs578T): 0.00839 µM
- GI50 (PLC/PRF/5): 0.00858 µM
- GI50 (ZR-75-1; bound given in μM): > 10 µM
- GI50 (MEX-SA/Dx5): 6.25 µM
- GI50 (NCI/ADR-RES): 2.33 µM

- GI50 (Hep3B [8]): 3.68 µM
- GI50 (HepG2 [9]): 8.25 µM
- GI50 (Huh7 [1]; [13]): 4.5 µM
- GI50 (MDA-MB-231; Homo sapiens, MDA-MB-231, 96 h): 3.04 µM
- GI50 (MDA-MB-453): 2.52 µM
- GI50 (MDA-MB-468; Homo sapiens, MDA-MB-468, 96 h): 3.17 µM
- GI50 (T47D): 1.73 µM
Structure (SMILES): CNC(=O)c1cc(Oc2ccc(NC(=O)Nc3ccc(Cl)c(C(F)(F)F)c3)cc2)ccn1 [sorafenib]
- GI50 (PLC/PRF/5): 3.76 µM
- GI50 (ZR-75-1): 4.34 µM

- GI50 (HeLa [7]): 0.637 µM
- GI50 (Hep3B [8]): 0.422 µM
- GI50 (HepG2 [9]): 0.435 µM
- GI50 (Huh7 [1]; Huh7, 96 hours, MTS): 0.0509 µM
- GI50 (K562 [10]): 0.0361 µM
- GI50 (MDA-MB-231; Homo sapiens, MDA-MB-231, 96 h): 0.347 µM
- GI50 (MDA-MB-453): 0.0923 µM
- GI50 (MDA-MB-468; Homo sapiens, MDA-MB-468, 96 h): 0.0107 µM
- GI50 (T47D): 0.00943 µM
Structure (SMILES): CC[C@@]1(O)C(=O)OCc2c1cc1n(c2=O)Cc2cc3c(CN(C)C)c(O)ccc3nc2-1 [topotecan]
- GI50 (Hs578T): 4.96 µM
- GI50 (PLC/PRF/5): 0.174 µM
- GI50 (ZR-75-1): 0.0363 µM
